Data taken from US20240208950A1, “COMPOSITIONS AND METHODS FOR TREATMENT OF CERVICAL AND OVARIAN CANCER” (SOUTH DAKOTA BOARD OF REGENTS, priority 2021, published 2024).

Experiments:
SiHa cells = assay: Cell migration (agarose bead, scratch wound), SiHa; type: cell-based, human; conditions: 0 and 48 hours
Experimental: FIGS. 7B and 7D show the effect of ORM-Br on motility potential of CaSki cells (FIG. 7B) and SiHa cells (FIG. 7D) as predicted by agarose bead assay. The images shown in FIGS. 7A-7D represent the migratory cells (MC) in control and ORM-Br treated groups at 0 and 48 hours. In FIGS. 7B and 7D, AB means agarose beads. In FIGS. 7A-7D the images magnification were at 4.
Cell motility was performed by in vitro scratch wound assay. Briefly, cells were seeded in a 12-wells plate and after 80-90% confluency a standardized wound was made using a 200 μL micropipette tip. Cells were then treated with Br-ORM (10 μM) and photographed by phase contrast microscopy. […]
FIG. 14. […] Effect of Br-ORM on cell migration of cervical cancer cells as determined by agarose bead (FIG. 14A), scratch wound healing (FIG. 14B), and Boyden chamber assay (FIG. 14C). […] Closure of wound was determined and photographed using phase contrast microscopy. […] Bar graph represent the quantification of migrated CaSki cells of control and Br-ORM treated groups (FIG. 14C(ii)). […] Effect of Br-ORM treatment on invasion of CaSki cells as determined by a commercially available kit (BD Biosciences) as described in materials and methods. In brief, 24 hours post-treatment of Br-ORM, invaded cells were fixed, stained and counted. […] Bar graph represent the quantification of invaded CaSki cells of control and Br-ORM treated groups (FIG. 14D(ii)). […]

[1] = test system: EMT markers and MMPs in SiHa cells; assay: Western blot for EMT markers and MMPs, SiHa; type: cell-based, human; conditions: 24 hours
Experimental: In a further example, cell lysates and western blot analysis was conducted for EMT markers and MMPs. […] In this example, about 70% of confluent SiHa and CaSki were treated with ORM-Br ([…]) for 24 hours. Cell lysates were prepared, and western blot analysis were conducted for EMT markers and MMPs analysis. The effect of ORM-Br on protein levels of cell-cycle regulatory proteins (cyclin E1 and p27) in both CaSki and SiHa cell lines are shown.
The effect of Br-ORM on protein expression in cervical cancer cells were determined by Western blot analysis by using specific antibodies.
Epithelial mesenchymal transition (EMT) is the basic characteristic of cancer cells in which epithelial cells undergo morphologic and molecular changes that transform the cells to mesenchymal, highly metastatic (invasive and motile), and drug-resistant phenotypes. Thus, targeting EMT may reduce the invasive phenotypes of a cancer cell and have significant advantage to overcome drug resistance. It has been reported that β-catenin is involved in invasion and metastasis via inducing EMT in various tumor cells. The effect of Br-ORM treatment on various EMT markers in cervical cancer cells was evaluated. […] The effect of Br-ORM on expression of EMT markers in cervical cancer cells compared to untreated group by use of qPCR analysis was determined. […] Expression of E-cadherin in cervical cancer cells treated with Br-ORM (10 μM) for 18 hours was also determined by immunofluorescence and confocal microscopy. Images were captured under 60× magnification and representative images are presented (FIG. 14G).
FIG. 14. Br-ORM decreases migration, invasion and attenuates EMT in cervical cancer cells. Effect of Br-ORM on cell migration of cervical cancer cells as determined by agarose bead (FIG. 14A), scratch wound healing (FIG. 14B), and Boyden chamber assay (FIG. 14C). AB denotes agarose bead while MC denotes migratory cells. Arrows indicate the distance of cervical cancer (CaSki and SiHa) cells migration in control and Br-ORM treated groups (FIG. 14A(i)-(ii)). […] Closure of wound was determined and photographed using phase contrast microscopy. […] Bar graph represent the quantification of migrated CaSki cells of control and Br-ORM treated groups (FIG. 14C(ii)). […] Effect of Br-ORM treatment on invasion of CaSki cells as determined by a commercially available kit (BD Biosciences) as described in materials and methods. In brief, 24 hours post-treatment of Br-ORM, invaded cells were fixed, stained and counted. […] Bar graph represent the quantification of invaded CaSki cells of control and Br-ORM treated groups (FIG. 14D(ii)). […] Effect of Br-ORM on E-cadherin expression in cervical cancer cells as determined by confocal microscopy in control and Br-ORM treated cells after 18 hours.

## COc1ccc2c(c1)OC(C)(C)C(c1ccc(Br)cc1)C2c1ccc(OCCN2CCCC2)cc1 (stereo not drawn) [ORM-Br]
SiHa cells
  cell migration / motility: inhibits the migration
SiHa cells; listed as Br-ORM
  cell migration / motility: dose dependent inhibition of migration abilities
[1]
  EMT associated markers (N-cadherin, vimentin and snail) expression: inhibits the EMT associated markers
  expression of E-cadherin: induced the expression of E-cadherin
  expression of MMP2 and MMP9: inhibited the expression of MMP2 and MMP9
[1]; listed as Br-ORM
  EMT associated markers (N-cadherin, vimentin and snail) expression: marked inhibition
